This note sets out measurements from US20110207627A1, “EX VIVO THERAPEUTICS SCREENING OF LIVING BONE MARROW CELLS FOR MULTIPLE MYELOMA” (GEORGE MASON UNIVERSITY, priority 2008, published 2011).

The subject of the assay is CD138+ cells and bone marrow cells (BMC). The assay is described as follows: Ex vivo treatment of multiple myeloma bone marrow aspirates, reverse phase protein microarray, CD138+ cells compared with bone marrow cells. It is filed as cell-based, human. To be noted: female, treatment naive multiple myeloma patient; 4 hours ex vivo; IL-6 stimulated cells compared to IGF1R & Rapamycin combination (FIG. 3). From the text:
A workflow using protein kinase signal pathway mapping technology was developed for the ex vivo, short-term drug treatment of fresh, living human multiple myeloma (MM) bone marrow aspirate tumor cells, compared to non MM bone marrow cells for the same patient. The study sought a) to measure the signal pathway perturbations caused by the inhibitor/ligand treatment in individual baseline bone marrow aspirate samples, b) to correlate this with the susceptibility of the ex vivo living sample to apoptosis induction, within 4 hours, by a molecular targeted inhibitor which blocks this pathway, and c) to compare the relative sensitivity of tumor and non tumor bone marrow cells treated in admixture under identical conditions to identify predictive/prognostic protein-based biomarkers.
Human bone marrow aspirates (n=20) and clinical information were collected following an IRB approved protocol from patients providing informed consent. A portion of the aspirate that was not needed for pathological diagnosis was immediately fixed for baseline analysis and the remaining sample was separated into multiple aliquots for ex vivo treatment. […]
Reverse phase protein arrays were used to quantitatively map 60 to 75 signal pathway endpoints. The impact of each treatment was measured on the selected endpoint compared to the vehicle control. […]

With “IL-6: cytokine used as exogenous ligand to stimulate cells”, the pro survival signaling result was “Differential pro survival signaling”.
